Test [1] relates to cumulus-oocyte complexes. The test can be described thus: cumulus expansion assay in vitro. It counts as cell-based, mice. As to conditions: competing with natural EP2 receptor agonist PGE2. The method, then:
Folliculogenesis is induced in immature female mice at an age of 14-18 days by a single dose (intraperitoneal) of 10 I.U. of PMSG (Pregnant Mare Serum Gonadotropin; Sigma G-4877, Lot 68H0909). 47-50 hours after the injection, the ovaries are removed and the cumulus-oocyte complexes are removed. The cumulus complex is not yet expanded at this stage.
The cumulus-oocyte complexes are then incubated with prostaglandin E2 (PGE2) (1 μM), vehicle control (ethanol) or test substances for 20-24 hours. Medium: alpha-MEM medium with 0.1 mM IBMX, pyruvates (0.23 mM) glutamines (2 mM), pen/strep 100 IU/ml pen. and 100 μg/ml strep. and HSA (8 mg/ml). Cumulus expansion is then established through the division into four stages (according to Vanderhyden et al. Dev Biol. 1990 August; 140(2):307-317).

The target of test [2] is T1, human prostaglandin E2 (subtype EP2) receptor (Homo sapiens, UniProt P43116).
T1 construct: host or cells: cells in a cell culture plate
The test can be described thus: cAMP antagonism test (HTRF cAMP detection, PGE2 stimulation). As to conditions: in presence of PGE2. The test is classed as cell-based. The method, then: (§1) The binding of PGE2 to the EP2 subtype of the human PGE2 receptor induces activation of membrane-associated adenylate cyclases and leads to the formation of cAMP. In the presence of the phosphodiesterase inhibitor IBMX, cAMP which has accumulated due to this stimulation and been released by cell lysis is employed in a competitive detection method. In this assay, the cAMP in the lysate competes with cAMP-XL665 for binding of an Eu cryptate-labelled anti-cAMP antibody.
(§2) The two signals are measured in a suitable measuring instrument with a time lag, i.e. after the background fluorescence has declined.
(§3) The substance solutions (0.75 μl) introduced into an assay plate and 30% DMSO are dissolved in 16 μl of a KRSB+IBMX stimulation solution (1× Krebs-Ringer Bicarbonate Buffer; Sigma-Aldrich #K-4002; including 750 μM 3-isobutyl-1-methylxanthine Sigma-Aldrich #I-7018), and then 15 μl thereof are transferred into a media-free cell culture plate which has been washed with KRSB shortly beforehand.
After preincubation at room temperature (RT) for 30 minutes, 5 μl of a 4×PGE2 solution (11 nM) are added, and incubation is carried out in the presence of the agonist at RT for a further 60 min (volume: ˜20 μl) before the reaction is then stopped by adding 5 μl of lysis buffer and incubated at RT for a further 20 min (volume: ˜25 μl). The cell lysate is then transferred into a measuring plate and measured in accordance with the manufacturer's information (cyclic AMP kit Cisbio International #62AMPPEC).
A general note: TR-FRET usually uses a lanthanide donor and a delayed reading to cut background.

For test [3], the target named is T1, human prostaglandin E2 (subtype EP2) receptor. The test can be described thus: cellular agonism test (cAMP). The test is classed as cell-based. The method, then:
as §1, §2, §3
After incubation at room temperature (RT; volume: ˜15 μl) for 60 minutes, the reaction is then stopped by adding 5 μl of lysis buffer and incubated at RT for a further 20 min (volume: ˜20 μl). The cell lysate is then transferred into a measuring plate and measured in accordance with the manufacturer's instructions (cyclic AMP kit Cisbio International #62AMPPEC).

T1 sequence (P43116 whole entry): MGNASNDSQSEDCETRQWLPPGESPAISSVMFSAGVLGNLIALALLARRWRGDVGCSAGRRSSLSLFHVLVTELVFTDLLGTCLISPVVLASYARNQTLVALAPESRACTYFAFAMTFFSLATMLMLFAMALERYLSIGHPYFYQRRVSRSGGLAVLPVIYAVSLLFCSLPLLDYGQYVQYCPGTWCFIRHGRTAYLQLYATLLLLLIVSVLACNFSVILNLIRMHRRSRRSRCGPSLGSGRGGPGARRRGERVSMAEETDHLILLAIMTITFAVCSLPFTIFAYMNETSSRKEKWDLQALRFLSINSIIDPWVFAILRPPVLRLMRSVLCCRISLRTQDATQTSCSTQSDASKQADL

As to `CC(C)Oc1ccc2c(=O)c3cc(C(=O)O)ccc3oc2c1` [AH 6809, reference compound], the “suppression of cumulus expansion” value in test [1] was “approx. 30%”.

For `c1cnc2ccc(-c3cc4ncnc(NCc5ccc6c(c5)OCO6)c4s3)cc2c1` [Example 57, Benzo[1,3]dioxol-5-ylmethyl-(6-quinolin-6-yl-thieno[3,2-d]pyrimidin-4-yl)amine], the IC50 in test [2] is 0.61 µM.

As to `CC(=O)Nc1cccc(-c2cc3ncnc(NCc4ccc5c(c4)OCO5)c3s2)c1` [Example 69, N-(3-{4-[(Benzo[1,3]dioxol-5-ylmethyl)amino]thieno[3,2-d]pyrimidin-6-yl}phenyl)acetamide], the half-inhibitory concentration (IC50) in test [2] was 0.46 µM. The “effect in the cellular agonism test” value in test [3] was “no inhibition”.

Take `Oc1ccc(CCNc2ncnc3cc(-c4ccccc4)sc23)cc1` [Example 9, 4-[2-(6-Phenylthieno[3,2-d]pyrimidin-4-ylamino)ethyl]phenol]: the “suppression of cumulus expansion” value in test [1] (10 μM) came to 45%.

As for `COc1ccc(CNc2ncnc3cc(-c4cccc(NC(C)=O)c4)sc23)cc1` [Example 90, N-{3-[4-(4-Methoxybenzylamino)thieno[3,2-d]pyrimidin-6-yl]phenyl}acetamide], the IC50 in test [2] is 0.31 µM.

By IC50 is commonly meant the concentration needed to halve the response being measured.

The record behind these values is patent publication US20090042878A1, “THIENOPYRIMIDYLAMINES AS MODULATORS OF THE EP2 RECEPTOR” (priority 2007, published 2009).
